What was measured:
OBP2 = experiment: Fluorescent-quench ligand-protein-binding assay (OBP2 binding); design: species or system Apis mellifera
Text: To identify a honeybee repellent disclosed herein, candidate compounds were screened based upon the fact that 2-heptanone is an established repellent of bees. 2-heptanone is thought to mediate its behavioral response through binding to a specific odorant-binding protein called OBP2. […] Such assays are generally known in the art. See, e.g., Briand, et al., Ligand-Binding Properties and Structural Characterization of a Novel Rat Odorant-Binding Protein Variant, Eur. J. Biochem. 267(10): 3079-3089 (2000); Briand, et al., Ligand Binding and Physico-Chemical Properties of ASP2, A Recombinant Odorant-Binding Protein From Honeybee (Apis mellifera L.), Eur. J. Biochem. 268(3): 752-760 (2001); Briand, et al., Characterization of a Chemosensory Protein (ASP3c) from Honeybee (Apis mellifera L.) as a Brood Pheromone Carrier, Eur. J. Biochem. 269(18): 4586-4596 (2002), each of which is hereby incorporated by reference in its entirety.

[1] = tested on: Apis mellifera Carniolan foraging worker honeybees; experiment: Proboscis extension response (PER) assay with bees conditioned to 2-heptanone; assay type: in vivo; settings: 0.5% compound in Triton X-100/water on filter paper, 4 s exposure; only bees giving PER with 2-heptanone and not with water or 15% Triton X-100 controls counted
Protocol: To determine whether a living honeybee can recognize a candidate compound, these compounds were tested using a proboscis extension response (PER) assay using classical conditioning approaches. Proboscis extension response conditioning is a case of appetitive learning, in which bees learn to associate odor stimuli with sucrose reward in the laboratory. In this case, bees were conditioned to produce a PER to 2-heptanone as the conditioned stimulus and a sugar reward as the unconditioned stimulus. These trained bees were then exposed to an odor pulse of a candidate compound to test whether a candidate compound would also produce a PER. If the candidate compound “mimics” 2-heptanone then the honeybee will extend its proboscis.
For conditioning procedures, Apis mellifera Carniolan foraging worker honeybees were obtained from a local apiary (typically 60 bees per shipment). The honeybees were held overnight in insect cages with food and water freely available, in an environmentally controlled room on a light cycle similar to the ambient cycle at the time of the assay.
For conditioning procedures, all tests were done in an odorant delivery apparatus set inside a fume hood. The apparatus comprised a set of open-ended, horizontal, 3 cm diameter by 10 cm long plastic tubes. Each tube was designed where a honeybee could be positioned at the distal end of a tube, with the opening at the other end of the tube located proximal to an inlet of the fume hood. To deliver an odorant, room air was pumped by a diaphragm pump through a particle filter via 0.25 inch plastic tubing at approximately 0.7 m/sec. The air flow passes into the headspace above an odorant (0.5% [v/v] 2-heptanone dissolved in odorless light paraffin oil) contained in a 100 mL bottle. The headspace air then passes through another plastic tube to a manifold of 4-way valves, each of which was attached near the proximal end of a plastic tube containing a bee. Each bee was exposed separately for a desired time period to the odorant by opening and closing the appropriate valve. When each valve was closed, the odor was flushed away immediately by the continuous fume hood air stream.
To train a honeybee to respond to a conditioned and unconditioned stimuli, bees were placed, without anesthesia, in individual 1.5 mL micro-centrifuge holding tubes and held overnight without access to food or water. The holding tubes containing the starved bees were placed in racks in groups of eight. One rack at a time was placed behind the odorant delivery apparatus so that each bee's head is centered at the distal end of a horizontal plastic tube. Each bee was exposed to the 2-heptanone odorant alone for four seconds, and then while being fed an 80% sucrose solution for and additional three seconds. The sucrose solution was delivered on a piece of saturated filter paper held in forceps. […] Positive and negative responses were recorded. A positive PER was scored when a bee extended its proboscis before the sucrose appeared. In a typical trial, 48 individual bees were subjected to conditioning.
After conditioning, honeybees were tested with the candidate compounds the same day or on the following day or, most commonly, both. When held overnight, bees were fed with sucrose and kept in their holding tubes. When tested the day after training, bees were given one or more rounds of conditioning with 2-heptatone to refresh their memories. Candidate compounds stocks were made at 5% (w/v) in polyoxyethylene octyl phenyl ether (TRITON® X-100), a non-ionic detergent/surfactant, and stored at 4° C. […] Test solutions were made fresh daily by mixing stock solutions with water for a final compound concentration of 0.5%. A solution of 0.5% 2-heptanone in paraffin oil was used as a positive control.

[2] = tested on: Apis mellifera Carniolan foraging worker honeybees; experiment: Choice test in a free-flight box apparatus; assay type: in vivo; settings: for P (probability that a honeybee will return to a test dish, nP divided by n): control likelihood without compound 47.5%; for nP (number of tests a honeybee returned to a preferred test dish): free-flight box, 2 μL of 0.05-0.5% compound on filter papers under honey dish
Text: To determine whether living honeybees will choice to move towards a source of a candidate compound, these compounds will be assayed using a choice test in a free-flight box apparatus.
All tests will be done in a free-flight box apparatus. The apparatus comprises a 244 cm long×46 cm deep×30 cm high clear plastic box including two equally-sized independent testing chambers, each with 10 cm diameter air inlets that admit filtered room air, separated by a smaller central chamber with a screened air outlet to each testing chamber. Air can be pulled through the sealed box via a 10 cm diameter duct from the air outlet using an AQE Fume Fighter 500 fume extractor (BPA Air Quality Solutions, LLC, Charleston, S.C.), which removes the test odors using activated charcoal and HEPA filters. The box is housed in an environmentally controlled room with overhead illumination timed to correspond to the current ambient light cycle including 2 additional sets of lights timed to approximate crepuscular lighting conditions. The bottom of the apparatus will be lined with clean absorbent paper marked with a 4×9 grid pattern, forming 12 cm×12 cm squares with marked coordinates.
Apis mellifera Carniolan foraging worker honeybees will be obtained from a local apiary (typically 60 bees per shipment). Thirty honeybees will be put into each testing chamber and will be allowed to acclimate for 24 hours with food and water freely available. At the beginning of each test day all food will be removed from the test chamber, but water will be continually available throughout all tests. For each test, approximately 0.3 g of organic, raw orange blossom honey will be added to each clean small plastic weigh boat (Cole-Palmer). The honey boats will be placed in small plastic culture dishes, which will be distributed in the marked squares in the chambers. The positions of the dishes on the grid for a set of trials will be chosen to avoid the bees' preferred resting area so that they will have to find the food actively, but the same dish positions will be maintained for a given set of trials. We will use seven dishes of honey: six to which the bees will have access and a seventh that will have a screened lid. The honey in each boat will be weighed on an analytical balance before and after the test, with the screened sample as a control for evaporative loss. The fume extractor will be left off during the experimental trails, and will be turned on to clear the air after the test dishes are covered and removed from the chamber at the end of each trial.
Based on the observation that bees tend to return to dishes in the same position where they have fed before, each set of trials with each group of bees began with “Pattern Identification” tests to see which dishes lose the most weight, reflecting the most feeding. Once bees are consuming an acceptable amount in 10-15 min, typically in 1-2 trials, a set of test compound trials will begin. The test compound will be pipetted onto pieces of filter paper placed on the dish bottom below the boat containing a fresh, weighed honey sample so that the test compound will be inaccessible to the bees. We used 2 μL of a candidate compound at a concentration of 0.05-0.5%, in Triton X-100 or paraffin oil, on each of four pieces of filter paper per dish. The test-solution dishes will be set at the same positions as the one or two dishes favored in the preceding Pattern Identification trial. To eliminate interference from the solvent, the other dishes without the test substance will contain the same volume of the appropriate solvent on filter papers as the test solution dishes. The bees will be allowed to feed for 10-15 minutes. Bee movements will be recorded by a small, wide-angle digital video camcorder (HD Hero 960; GoPro, Halfmoon Bay, Calif.) placed on a tripod in front of the test chamber. […]

Structure (SMILES) | OBP2 binding characteristic of compound (OBP2) | 2-heptanone positive bees testing positive to compound [1] [%] | P (probability that a honeybee will return to a test dish, nP divided by n) [2] | nP (number of tests a honeybee returned to a preferred test dish) [2]
Oc1ccc2ccccc2c1C=NNc1ccccn1 [compound 66, 2-hydroxy-1-naphthaldehyde 2-pyridinylhydrazone] | Moderate (Moderate, indicates that 50% or less of the compound bound to OBP2.) | 24.4 | 0.379 | 22
COc1cc(C2N=C(c3ccccc3)N=C(c3ccccc3)N2)ccc1O (stereo not shown) [compound 67, 4-(4,6-diphenyl-1,2-dihydro-1,3,5-triazin-2-yl)-2-methoxyphenol] | Moderate (Moderate, indicates that 50% or less of the compound bound to OBP2.) | 26.5 | 0.321 | 9
CC(=O)c1ccccc1NC(=O)C1CCC(C(=O)Nc2ccccc2C(C)=O)S1 (stereo not shown) [compound 68, N,N′-bis(2-acetylphenyl)tetrahydro-2,5-thiophenedicarboxamide] | Moderate (Moderate, indicates that 50% or less of the compound bound to OBP2.) | 20.8 | 0.5 | 2
Oc1ccc2ccccc2c1C=Nc1ccc(I)cc1 [compound 74, 1-{[(4-iodophenyl)imino]methyl}-2-naphthol] | Moderate (Moderate, indicates that 50% or less of the compound bound to OBP2.) | 25.0 | 0.45 | 18
Nc1c(C(=O)c2ccccc2)sc2nc(-c3cccnc3)ccc12 [compound 75, [3-amino-6-(3-pyridinyl)thieno[2,3-b]pyridin-2-yl](phenyl)methanone] | Moderate (Moderate, indicates that 50% or less of the compound bound to OBP2.) | 25.0 | 0.542 | 13
CCOc1ccccc1C=NN1C(=O)c2ccccc2C1=O [compound 79] | Moderate (Moderate, indicates that 50% or less of the compound bound to OBP2.) | 23.1 | 1 | 2
c1ccc(Oc2cc(-n3cccn3)nc(-c3ccccc3)n2)cc1 [compound 80, 4-phenoxy-2-phenyl-6-(1H-pyrazol-1-yl)pyrimidine] | Moderate (Moderate, indicates that 50% or less of the compound bound to OBP2.) | 20.0 | 0.333 | 2
CCOC(=O)c1cc(CC)sc1NC(=O)c1ccccc1 [compound 81, ethyl 2-(benzoylamino)-5-ethyl-3-thiophenecarboxylate] | Moderate (Moderate, indicates that 50% or less of the compound bound to OBP2.) | 37.5 | 0.333 | 6
Oc1c(Br)cc(Cl)cc1C=Nc1ccccn1 [compound 83, 2-bromo-4-chloro-6-[(2-pyridinylimino)methyl]phenol] | Moderate (Moderate, indicates that 50% or less of the compound bound to OBP2.) | 47.7 | 0.278 | 10
O=C(NN=Cc1ccc(-c2cccc(Cl)c2Cl)o1)c1ccncc1 [compound 113] | Moderate (Moderate, indicates that 50% or less of the compound bound to OBP2.) | 11.1 |  | 
COc1ccc(-c2ccc(C=NNC(=O)c3ccccn3)o2)cc1Cl [compound 114] | Moderate (Moderate, indicates that 50% or less of the compound bound to OBP2.) | 22.2 |  | 
CCN1C(=O)C(=Cc2cc(Br)ccc2OC)SC1=S [compound 115] | Moderate (Moderate, indicates that 50% or less of the compound bound to OBP2.) | 40.0 |  | 
CCN1C(=O)C(=Cc2cc(Br)ccc2O)SC1=S [compound 116] | Moderate (Moderate, indicates that 50% or less of the compound bound to OBP2.) | 25.0 |  | 
O=C(c1ccccc1)N1N=C(c2ccccc2)CC1(O)C(F)(F)F (stereo not shown) [compound 119] | Moderate (Moderate, indicates that 50% or less of the compound bound to OBP2.) | 60.0 |  | 

— patent US9796676B2, “Honeybee repellents and uses thereof” (Inscent, Inc., priority 2013, dated 2017)
